Measured values as given in patent publication US6716819B2, “Use of xylitol to reduce ionic strength and activate endogenous antimicrobials for prevention and treatment of infections” (University of Iowa Research Foundation, priority 2000, dated 2004).

Experiments:
non-CF epithelia = test: Liquid absorption by airway epithelia; assay type: cell-based, human; details: 60 μl saline/xylitol mixtures apical, 4 hours, increasing xylitol concentration
Experimental: (§1) FIG. 2. Effect of apical xylitol on rate of liquid absorption by non-CF and CF epithelia. Sixty μl of saline solution, xylitol solution, or indicated mixtures of the two were applied to the apical surface. Four hours later the solution was removed to measure rate of liquid absorption. A short incubation period was chosen to avoid secondary changes in the epithelium due to the large volume of apical liquid. Data are mean±SEM; n=15 from 3 different experiments. Some SEM bars are hidden by symbols.
(§2) Airway epithelial cells were isolated from tracheal and bronchial tissue. […] All epithelia were evaluated with scanning electron microscopy for the development of a ciliated apical surface.
(§3) Liquid absorption was measured using methods similar to those previously described (Smith, J. J., P. H. Karp, and M. J. Welsh. 1994. Defective fluid transport by cystic fibrosis airway epithelia. J. Clin. Invest. 93:1307-1311). […] After incubation for 4 hours, apical solutions were collected under mineral oil and their volume measured as previously described (Zabner, J., J. J. Smith, P. H. Karp, J. H. Widdicombe, and M. J. Welsh. 1998. Loss of CFTR chloride channels alters salt absorption by cystic fibrosis airway epithelia in vitro. Mol. Cell. 2:397-403; Smith, J. J., P. H. Karp, and M. J. Welsh. 1994. Defective fluid transport by cystic fibrosis airway epithelia. J. Clin. Invest. 93:1307-1311). […]

CF epithelia = test: Liquid absorption by airway epithelia; assay type: cell-based, human; details: 60 μl saline/xylitol mixtures apical, 4 hours, increasing xylitol concentration
Experimental: as §1, §2, §3

P. aeruginosa = test: Growth in carbon-starved M9 media (O.D.); assay type: cell-based; details: M9 media supplemented at 100 mM
Experimental: (§4) FIGS. 5(A-G). […] A, B and C. Growth of P. aeruginosa (A), S. aureus, (B), and coagulase-negative Staphylococcus (C) were measured as O. D. M9 media alone is indicated by open triangle. Xylitol (closed circle), or succinate, mannitol, or sucrose (open circles), were added to M9 media at 100 mM as indicated. D. Nasal swabs were collected and cultured for 3 days in Lauria-Bertani media (open circles), in minimal M9 media (open squares), or in M9 media supplemented with 100 mM xylitol (closed circles). E, F and G. P. aeruginosa (E), S. aureus (F), and coagulase-negative Staphylococcus (G) were cultured in Lauria-Bertani media alone (open triangles), Lauria-Bertani media with 100 mM xylitol (closed circles), and Lauria-Bertani media containing tobramycin or levofloxacin (open circles).
(§5) To test the effect of xylitol on growth of different airway pathogens in a carbon-starved media, P. aeruginosa, S. aureus, and coagulase-negative Staphylococcus were grown overnight in Lauria-Bertani medium. The bacteria were then centrifuged and resuspended in M9 media containing either 100 mM succinate, mannitol, or sucrose, respectively, and grown overnight at 37° C. The bacteria were centrifuged and resuspended in M9 media alone. M9 media containing 100 mM xylitol, or 100 mM of the indicated metabolizable sugar, as positive control. The optical density (O.D.) was measured after 0, 1, 2, and 4 hours at 600 nm on a Beckman DU640 Spectrophotometer (Schaumburg, Ill.). To test the antibiotic effect of xylitol, P. aeruginosa, S. aureus, and coagulase-negative Staphylococcus were grown overnight in Lauria-Bertani medium. The bacteria were then centrifuged and resuspended in Lauria-Bertani media with and without 100 mM xylitol. As a positive control, antibiotics with specific activity to each of the bacteria were added to the media (40 μg/ml tobramycin or 40 μg/ml levofloxacin).

[1] = system: coagulase-negative Staphylococcus; test: Growth in carbon-starved M9 media (O.D.); assay type: cell-based; details: M9 media supplemented at 100 mM
Experimental: as §4, §5

[2] = cited from earlier work

Q: For OC[C@@H](O)[C@H](O)[C@@H](O)CO [xylitol], which “rate of liquid absorption” value (non-CF epithelia) is on record?
A: The value was “reduced the rate of liquid absorption”.

Q: What about the “rate of liquid absorption” value (CF epithelia) of the same molecule?
A: The value was “reduced the rate of liquid absorption”.

Q: And the “growth of P. aeruginosa” value (P. aeruginosa)?
A: The value was “no growth”.

Q: What about the “growth of coagulase-negative Staphylococcus” value [1] of the same molecule?
A: The value was “failed to support growth”.

Q: And the “toxicity observed after intravenous delivery” value ([2]; 5-50% solution in water at 1-4.5 g/Kg intravenously, changes reversible)?
A: Its value is “increases in serum uric acid and elevated liver enzymes”.

Q: And the “adverse effect in children” value ([2]; delivered in large amounts)?
A: The value was “osmotic diarrhea”.
